Data reported in publication PMC6895048, “4,5-Disubstituted 1,2,3-triazoles: Effective Inhibition of Indoleamine 2,3-Dioxygenase 1 Enzyme Regulates T cell Activity and Mitigates Tumor Growth” (Scientific Reports, 2019).

Assays:
IDO1 [1] = molecular target: T1, IDO1 (Homo sapiens, UniProt P14902); assay: Equilibrium surface plasmon resonance (SPR) analysis; format: binding; parameters: made in house; host or cells: Escherichia coli M15 (pQE30 vector with pREP4 plasmid); settings: PBS buffer pH 7.4, triplicate
Experimental: The surface plasmon resonance (SPR) analysis was carried out according to the reported procedure with minor modifications[34],[52]. In brief, the measurements were performed at 25 °C on the Biacore-X100 instrument using CM5 sensor chip (GE Healthcare). PBS buffer at pH 7.4 was used as running buffer. The surface of the CM5 sensor chip was first modified with Anti-His Antibody using amine-coupling kit at a flow rate of 30 µL/ minute, followed by IDO1 enzyme (30 µg/mL) immobilization using His-capture kit at a flow rate of 10 µL/minute for 2 minutes. The IDO1 enzyme capture level was 4000 response units (RU). The binding efficacy (association constant; ka) of the compounds was determined by measuring the change in RU of the SPR sensorgram in absence or presence of the compounds (0 to 50 µM).
Figure S1. Measurements of compound binding affinity of the human IDO1 enzyme by […]
equilibrium SPR analysis.
(D), respectively injected over the biosensor chip surface-immobilized with IDO-1 protein are indicated. PBS buffer at pH 7.4 was used for all measurements. Binding isotherm was generated from the Req (average of triplicate measurements) versus the concentration of […] plot. Kd values determined by nonlinear least-squares analysis of the isotherm using the following equation: Req = Rmax/(1 + Kd/P).
Table S3. IDO1 binding affinity of various compounds determined from equilibrium SPR […]
(1 picture or pasted object on this page, not shown here)

IDO1 [2] = molecular target: T1, IDO1; assay: Circular dichroism analysis of IDO1 enzyme; parameters: made in house; host or cells: Escherichia coli M15 (pQE30 vector with pREP4 plasmid)
Experimental: The Circular Dichroism (CD) spectra of the IDO1 enzyme in the absence or presence of compounds were recorded with a Jasco-810-spectropolarimeter according to the reported procedure[37],[38]. Samples of rIDO1 (2 μM) were prepared in 10 mM KPB buffer (pH 6.5) in a […] quartz cuvette. Spectra were recorded by varying the concentration of the compound (250 nM to 4 µM) using a 1 mL quartz cuvette of 1 cm path length with a Jasco J-1500 spectropolarimeter at 17 °C. Also the spectra were collected at a scan rate […] and 1 nm bandwidth from 200 nm to 260 nm with three times scan for averaging. All final spectra were corrected for buffer background CD signals. The % of the secondary structures of the IDO1 enzyme was analyzed using the inbuilt software of the instrument.

IDO1 [3] = molecular target: T1, IDO1; assay: Kynurenine assay by HPLC analysis, IDO1; format: biochemical; parameters: made in house; host or cells: Escherichia coli M15 (pQE30 vector with pREP4 plasmid)
Experimental: HPLC based IDO1, and TDO inhibition assays were performed according to the earlier reported procedure[19],[27]–[30]. The reaction mixture (250 µL) contained KPB (100 mM, pH 6.5 for IDO1 and 50 mM, pH 8.0 for TDO), sodium ascorbate (20 mM), methylene blue (10 µM), catalase (240 nM, from bovine liver, Sigma), L-Trp (150 µM), purified enzyme (40 nM for IDO1 and 25 nM for TDO), DMSO (0.05%, v/v), Triton-X 100 (0.01%, v/v) and inhibitors. The concentration of the compound was varied from 100 µM to 32 nM by serial dilution. The mixture was incubated at 37 °C for 1 hour in the absence and presence of the synthesized compounds. The reaction was then quenched using 50 µL of 30% (w/v) trichloroacetic acid and incubated at 65 °C for additional 15 minutes to allow complete hydrolysis of N-formylkynurenine to kynurenine. After that, the mixture was centrifuged at 10,000 rpm for 10 minutes, and 100 µL of clear solution was transferred to another tube for HPLC analysis. Then, 20 µL of the reaction mixture was then injected through Ascentis® express C18, 2.7 µm HPLC column with a flow rate of 0.5 mL/minute of the mobile phase containing 50% sodium citrate buffer (40 mM, pH 2.25) and 50% methanol (v/v) with 400 µM SDS. The area under the curve at 365 nm chromatogram corresponding to the kynurenine formation was recorded, and % of inhibition was calculated using standard curve prepared with pure kynurenine (from Sigma) under similar experimental conditions.

[4] = Serum binding by Trp-fluorescence quenching; format: in vitro ADME, human; settings: qualitative; compared with compound 4i
Experimental: Tryptophan fluorescence measurements of the human serum were performed in the presence of compounds on a Fluoromax-4 spectrofluorometer at room temperature. For fluorescence measurements, 30 µL of 100% human serum and varying concentrations (0–220 µM) of compounds were incubated in 10 mM PBS buffer, pH 7.4. The solution was excited at 290 nm, and emission spectra were recorded from 300 to 560 nm. The resulting tryptophan emission spectra for each concentration of the compounds were plotted.

[5] = HPLC based IDO1 inhibition assay

T1 sequence (P14902 whole entry): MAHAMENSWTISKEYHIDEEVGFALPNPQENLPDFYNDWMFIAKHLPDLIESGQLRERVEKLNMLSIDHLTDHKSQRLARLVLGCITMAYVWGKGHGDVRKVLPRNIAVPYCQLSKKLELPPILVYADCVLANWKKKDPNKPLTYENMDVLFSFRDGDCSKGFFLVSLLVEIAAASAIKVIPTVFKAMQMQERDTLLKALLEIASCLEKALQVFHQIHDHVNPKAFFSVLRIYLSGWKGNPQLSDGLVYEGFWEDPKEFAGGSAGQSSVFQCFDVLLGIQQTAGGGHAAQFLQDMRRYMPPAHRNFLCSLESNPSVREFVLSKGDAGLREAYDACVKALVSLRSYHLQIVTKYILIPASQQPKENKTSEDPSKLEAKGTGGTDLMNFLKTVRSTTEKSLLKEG

SMILES | Kd (IDO1 [1]) [nM] | % of Secondary structural elements, Beta (IDO1 [2]; compound 0.25 µM) [%] | % of Secondary structural elements, Helix (IDO1 [2]; compound 0.25 µM) [%] | % of Secondary structural elements, Random (IDO1 [2]; compound 0.25 µM) [%] | % of Secondary structural elements, Turn (IDO1 [2]; compound 0.25 µM) [%] | % of Secondary structural elements, Beta (IDO1 [2]; compound 0.5 µM) [%] | % of Secondary structural elements, Helix (IDO1 [2]; compound 0.5 µM) [%] | % of Secondary structural elements, Random (IDO1 [2]; compound 0.5 µM) [%] | % of Secondary structural elements, Turn (IDO1 [2]; compound 0.5 µM) [%] | % of Secondary structural elements, Beta (IDO1 [2]; compound 1 µM) [%] | % of Secondary structural elements, Helix (IDO1 [2]; compound 1 µM) [%] | % of Secondary structural elements, Random (IDO1 [2]; compound 1 µM) [%] | % of Secondary structural elements, Turn (IDO1 [2]; compound 1 µM) [%] | % of Secondary structural elements, Beta (IDO1 [2]; compound 2 µM) [%] | % of Secondary structural elements, Helix (IDO1 [2]; compound 2 µM) [%] | % of Secondary structural elements, Random (IDO1 [2]; compound 2 µM) [%] | % of Secondary structural elements, Turn (IDO1 [2]; compound 2 µM) [%] | % of Secondary structural elements, Beta (IDO1 [2]; compound 4 µM) [%] | % of Secondary structural elements, Helix (IDO1 [2]; compound 4 µM) [%] | % of Secondary structural elements, Random (IDO1 [2]; compound 4 µM) [%] | further results
O=C(N/C(Cc1ccc(O)cc1)=N\O)c1n[nH]nc1-c1ccc(F)c(F)c1 [Compound 4i] | 40200 ± 4990 | 0.7 | 27.8 | 37.6 | 33.9 | 0 | 28 | 38.1 | 33.9 | 0 | 27.6 | 40.6 | 31.8 | 0 | 29.8 | 42.6 | 27.6 | 0 | 31.8 | 38.8 | % of Secondary structural elements, Turn (IDO1 [2]; compound 4 µM): 29.4%; IC50 (IDO1 [3]; [5]): 114 ± 10 nM; % Of inhibition for IDO1 enzyme (IDO1 [3]; HPLC, 32 nM): 13%; % Of inhibition for IDO1 enzyme (IDO1 [3]; HPLC, 160 nM): 34%; % Of inhibition for IDO1 enzyme (IDO1 [3]; HPLC, 800 nM): 52%; % Of inhibition for IDO1 enzyme (IDO1 [3]; HPLC, 4 µM): 68%; % Of inhibition for IDO1 enzyme (IDO1 [3]; HPLC, 20 µM): 79%; % Of inhibition for IDO1 enzyme (IDO1 [3]; HPLC, 100 µM): 84%; IC50 (IDO1 [3]; kynurenine assay): 60 to 115 nM
NS(=O)(=O)NCCNC(=O)c1n[nH]nc1-c1ccc(F)c(F)c1 [Compound 4k] | 49100 ± 8510 | 3.6 | 26.8 | 34.3 | 35.3 | 0 | 30.6 | 31.2 | 38.2 | 0 | 28 | 33.9 | 38.1 | 0 | 23.8 | 46.0 | 30.2 | 0 | 29.1 | 36.4 | interaction with human serum proteins (Trp-fluorescence quenching) [4]: more strongly; % of Secondary structural elements, Turn (IDO1 [2]; compound 4 µM): 34.5%; IC50 (IDO1 [3]; [5]): 59 ± 6 nM; inhibition at 0.032 µM (IDO1 [3]; HPLC, 32 nM): 14%; inhibition at 0.16 µM (IDO1 [3]; HPLC, 160 nM): 45%; inhibition at 0.8 µM (IDO1 [3]; HPLC, 800 nM): 69%; inhibition at 4 µM (IDO1 [3]; HPLC, 4 µM): 77%; inhibition at 20 µM (IDO1 [3]; HPLC, 20 µM): 86%; inhibition at 100 µM (IDO1 [3]; HPLC, 100 µM): 84%; IC50 (IDO1 [3]; kynurenine assay): 60 to 115 nM
NC(=O)c1n[nH]nc1-c1ccc(F)c(F)c1 [Compound 3i] | 34500 ± 5200 | 0 | 30.1 | 35.8 | 34.1 | 0 | 29.4 | 36.8 | 33.8 | 0 | 29.8 | 35.8 | 34.5 | 0 | 28.5 | 40.8 | 30.7 | 0 | 30.7 | 60.4 | interaction with human serum proteins (Trp-fluorescence quenching) [4]: more strongly; % of Secondary structural elements, Turn (IDO1 [2]; compound 4 µM): 8.9%; IC50 (IDO1 [3]; [5]): 119 ± 13 nM; % Of inhibition for IDO1 enzyme (IDO1 [3]; HPLC, 32 nM): 27%; % Of inhibition for IDO1 enzyme (IDO1 [3]; HPLC, 160 nM): 48%; % Of inhibition for IDO1 enzyme (IDO1 [3]; HPLC, 800 nM): 69%; % Of inhibition for IDO1 enzyme (IDO1 [3]; HPLC, 4 µM): 76%; % Of inhibition for IDO1 enzyme (IDO1 [3]; HPLC, 20 µM): 84%; % Of inhibition for IDO1 enzyme (IDO1 [3]; HPLC, 100 µM): 83%
CCOC(=O)c1n[nH]nc1-c1ccc(F)c(F)c1 [Compound 2i] | 61700 ± 6070 | 0 | 28 | 37.9 | 34.1 | 0 | 28.7 | 36.1 | 35.2 | 0 | 30.2 | 33.5 | 36.3 | 0 | 30.5 | 33.8 | 35.7 | 0 | 30.5 | 35.7 | interaction with human serum proteins (Trp-fluorescence quenching) [4]: more strongly; % of Secondary structural elements, Turn (IDO1 [2]; compound 4 µM): 33.8%; IC50 (IDO1 [3]; [5]): 396 ± 10 nM; % Of inhibition for IDO1 enzyme (IDO1 [3]; HPLC, 32 nM): 21%; % Of inhibition for IDO1 enzyme (IDO1 [3]; HPLC, 160 nM): 29%; % Of inhibition for IDO1 enzyme (IDO1 [3]; HPLC, 800 nM): 59%; % Of inhibition for IDO1 enzyme (IDO1 [3]; HPLC, 4 µM): 60%; % Of inhibition for IDO1 enzyme (IDO1 [3]; HPLC, 20 µM): 78%; % Of inhibition for IDO1 enzyme (IDO1 [3]; HPLC, 100 µM): 80%
